Experimental data from patent US9399645B2, “Inhibitors of HIV replication” (Boehringer Ingelheim International GmbH, priority 2011, dated 2016).
pEC50: −log10 of the molar value.

Assays:
[1] = test system: HIV-1; experiment: C8166 HIV-1 Luciferase Assay (EC50); assay type: cell-based; settings: Human immunodeficiency virus 1, C8166, 72 h
Method: C8166 HIV-1 Luciferase Assay (Ec50)
The assay used to measure inhibition of HIV replication is as described in WO 2004/050643, pages 73-75, incorporated herein by reference, with the following modifications:
Serial dilutions of HIV-1 inhibitors are prepared in complete media from DMSO stock solutions. Eleven serial dilutions of desired concentration are prepared in a 1 mL deep well titer plate (96 wells). The 12th well contains complete media with no inhibitor and serves as the positive control. All samples contain the same concentration of DMSO (<0.1% DMSO). Inhibitor is added, to triplicate wells, of a 96 well tissue culture treated clear view black microtiter plate (Corning Costar catalogue #3904). The total volume per well is 200 μL of media containing the cells and inhibitor. The last row is reserved for uninfected C8166 LTRIuc cells to serve as the background blank control and the first row is media alone.
Count C8166 LTRIuc cells and place in a minimal volume of complete RPMI 1640 in a tissue culture flask (ex. 30×10^6 cells in 10 mL media/25 cm^2 flask). Infect cells with HIV-1 at a moi of 0.005. Incubate cells for 1.5 h at 37° C. on a rotating rack in a 5% CO2 incubator. Resuspend cells in complete RPMI to give a final concentration of 25,000-cells/well. Add cells to wells of 96 well microtiter plate containing inhibitors. Add 25,000 uninfected C8166-LTRIuc cells/well in 200 μL complete RPMI to last row for background control. Incubate cells at 37° C. in 5% CO2 incubator for 3 days.
50 μL Steady Glo (luciferase substrate T112=5 hours Promega catalogue # E2520) is added to each well of the 96 well plate. The relative light units (RLU) of luciferase are determined using a luminescence plate reader. The calculated % inhibition values are used to determine EC50, slope factor (n) and maximum inhibition (Imax).

[2] = Caco-2 Permeability Assay; assay type: in vitro ADME; settings: human, apparent permeability A to B, compound at 10 μM, apical buffer pH 6.0, basolateral buffer pH 7.4, read-out: Papp (cm/sec, *10^−6)
Description: Caco-2 Permeability Assay Caco-2 cells are purchased from Cell Culture Services as frozen instant cells at a concentration of 1*10^7 cells/vial. DMEM+glutamax-I culture media is purchased from Gibco (10569). Fetal bovine serum (FBS) is purchased from HyClone (SH30396.03). Pennicilin/Streptomycin antibiotics are purchased from Gibco (15140). MEM non-essential amino acids are purchased from Gibco (11140). Hank's balanced salt solution (HBSS) is purchased from Gibco (14025). Bovine serum albumin (BSA) is purchased from Sigma-Aldrich (A7906). MES low moisture is purchased from Sigma-Aldrich (M3671). HEPES is purchased from Sigma-Aldrich (H3375). Dimethyl Sulfoxide (DMSO) is purchased from EMD (MX1457-6). Complete DMEM media is prepared by adding 1 L of FBS, 100 mL of pen/strep and 110 mL of MEM non essential amino acids to 10 L of DMEM+glutamax-I. […] Caco-2 cells are seeded on HTS transwell 24-well plates purchased from Corning (3397). These polycarbonate membrane plates have a diameter of […] and pore size of 0.4 μm. The Caco-2 cells vial is thawed in a 37° C. water bath until only a small ice pellet is left. The vial is then transferred to the laminar flow hood and its exterior is extensively washed with 70% ethanol. The total content of the vial (2 mL) is transferred into a 50 mL tube containing 38 mL of complete DMEM. […] The seeding is done by the Hamilton star robotic station which is controlled with the Venus program. Each well will receive 600 μL of complete DMEM on its basolateral side and 200 μL of cells on its apical side. Each well receives 50 000 cells. The 24-well plates are then returned to an automated Liconic STX110 incubator set at 37° C., 5% CO2 and 100% humidity. The culture media for the cells is changed every two days except on weekends. These cells are maintained for a period of two weeks prior to the running of the permeability assay. Permeability assays are usually performed between day 15 and 18 after the initial seeding. […] Controls for the assay are mannitol for tight junction determination and Digoxin for efflux transporter (p-glycoprotein) expression. On the day of the assay, each compound is diluted to 10 μM in the buffer (apical for A to B). 6 μl of the 5 mM DMSO stock is added to 3 mL of the buffer in a 24-well 10 mL deep plate covered with a lid. The plate containing all the diluted compounds is spun for 10 min at 3000 rpm in a Rotanta 46 RSC centrifuge from Hettich to remove unsoluble compound. This dilution is used to add at the start of the incubation. Each compound is tested in duplicate. On the day of the assay, the culture media of the 24-well plate is removed and replaced with warm HBSS. The HBSS is then also removed and the Apical and Basolatral buffer are added to their respective side of the transwells. These steps are performed by the Hamilton Star robotic station. The plate is then placed in a 37° C. incubator and is left to equilibrate for 30 min. After 30 min of incubation a background sample (25 μL from each well) is taken from the receiver side (Basolateral for A to B), and replenished with warm buffer. These samples and all others afterwards are kept in a 96-well 1 mL plate. To start the assay, the donor compartment (apical for A to B) is emptied and replaced with new buffer containing the compound at 10 μM. Once the compounds are added, the plate is returned to the 37° C. incubator and the timer is started. In order to determine how much compound is actually added to each well, a 50 μL sample is taken from each compound dilution, this sample is refered to as the load. These steps and the following are performed by the Tecan Freedom EVO robotic station controlled via the Gemini software. For A-to-B Assay: Samples (190 μL) are taken from each basolateral (receiver) chamber at time points 0, 60, 120 and 180 min or at time points 0, 30, 60 and 90 min. From the 190 μL taken, 50 μL is transferred to the receiving plate and 140 μL is discarded.

Structure (SMILES) | pEC50 [1] | Papp A→B at 10 μM [2] [×10⁻⁶ cm/s]
CC[C@@H]1C[C@H](n2c(=O)nc(-c3ccc(NC)nc3)c3oc4ccc(-c5cnn(C)c5)cc4c32)CO1 (racemic) [Compound 1037] | 7.99 | 8.2
CC[C@H]1C[C@@H](n2c(=O)nc(-c3cnn(C)c3)c3oc4ccc(-c5cnn(C)c5)nc4c32)CCO1 [Compound 1001] | 8.31 | 20.4
CC[C@H]1C[C@@H](n2c(=O)nc(-c3cnn(C)c3)c3oc4ccc(-c5cn(C)nc5C)nc4c32)CCO1 [Compound 1002] | 8.07 | 14.5
CC[C@H]1C[C@@H](n2c(=O)nc(-c3cnn(C)c3)c3oc4ccc(-c5ccn(C)n5)nc4c32)CCO1 [Compound 1003] | 8.19 | 22.2
CC[C@H]1C[C@@H](n2c(=O)nc(-c3cnn(C)c3)c3oc4ccc(-c5cncnc5)nc4c32)CCO1 [Compound 1004] | 7.68 | 14.1
CC[C@H]1C[C@@H](n2c(=O)nc(-c3cnn(C)c3)c3oc4ccc(-c5cccnc5)nc4c32)CCO1 [Compound 1006] | 8.13 | 18.1
CC[C@H]1C[C@@H](n2c(=O)nc(-c3cnn(C)c3)c3oc4ccc(-c5cnco5)nc4c32)CCO1 [Compound 1007] | 8.08 | 19.7
C[C@@H]1C[C@H](n2c(=O)nc(-c3cnn(C)c3)c3oc4ccc(-c5cnn(C)c5)nc4c32)C[C@H](C)O1 [Compound 1008] | 7.13 | 18.1
CC[C@H]1C[C@@H](n2c(=O)nc(-c3cnn(C)c3)c3oc4ccc(-c5cnn(C)c5)nc4c32)C[C@@H](C)O1 [Compound 1009] | 8.34 | 27.6
CC[C@H]1C[C@@H](n2c(=O)nc(-c3cnn(C)c3)c3oc4ccc(-n5cncn5)nc4c32)CCO1 [Compound 1013] | 7.01 | 16.8
CC[C@H]1C[C@@H](n2c(=O)nc(-c3cnn(C)c3)c3oc4ccc(-c5cn(C)cn5)nc4c32)CCO1 [Compound 1014] | 8.28 | 20.7
CC[C@H]1C[C@@H](n2c(=O)nc(-c3cnn(C)c3)c3oc4cc(C#N)c(-c5cnn(C)c5)nc4c32)CCO1 [Compound 1015] | 8.52 | 20.7
C[C@@H]1C[C@H](n2c(=O)nc(-c3cnn(C)c3)c3oc4cc(C#N)c(-c5cnn(C)c5)nc4c32)C[C@H](C)O1 [Compound 1016] | 7.05 | 15.9
CC[C@H]1C[C@@H](n2c(=O)nc(-c3cnn(C)c3)c3oc4cc(C#N)c(-c5cnn(C)c5)nc4c32)C[C@@H](C)O1 [Compound 1017] | 7.66 | 23.6
CCC[C@H]1C[C@@H](n2c(=O)nc(-c3cnn(C)c3)c3oc4cc(C#N)c(-c5cnn(C)c5)nc4c32)CCO1 [Compound 1018] | 7.66 | 19.8
CC[C@H]1C[C@@H](n2c(=O)nc(-c3cccnc3)c3oc4cc(C#N)c(-c5cnn(C)c5)nc4c32)CCO1 [Compound 1019] | 7.28 | 22.5
CC[C@H]1C[C@@H](n2c(=O)nc(-c3cnn(C)c3)c3oc4cc(Cl)c(-c5cnn(C)c5)nc4c32)CCO1 [Compound 1022] | 8.49 | 17.2

Structure (SMILES) | pEC50 [1] | Papp A→B at 10 μM [2] [×10⁻⁶ cm/s]
CNc1ccc(-c2nc(=O)n(CCC3CCCO3)c3c2oc2ccc(-c4cnn(C(C)C)c4)cc23)cn1 (stereo not drawn) [Compound 1025] | 6.46 | 8.1
Cn1cc(-c2ccc3oc4c(-c5ccc(N6CCOCC6)nc5)nc(=O)n(CCC5CCCO5)c4c3c2)cn1 (stereo not drawn) [Compound 1026] | 7.55 | 7.4
CNc1ccc(-c2nc(=O)n(CCC3CCCO3)c3c2oc2ccc(-c4cnco4)cc23)cn1 (stereo not drawn) [Compound 1027] | 7.27 | 12.4
CNc1ccc(-c2nc(=O)n(CCC3CCCO3)c3c2oc2ccc(-c4cncs4)cc23)cn1 (stereo not drawn) [Compound 1028] | 7.30 | 19.9
CNc1ccc(-c2nc(=O)n(CCC3CCCO3)c3c2oc2c(F)cc(-c4cnco4)cc23)cn1 (stereo not drawn) [Compound 1029] | 7.72 | 16.1
CNc1ccc(-c2nc(=O)n(CCC3CCCO3)c3c2oc2c(F)cc(-c4cnn(C)c4)cc23)cn1 (stereo not drawn) [Compound 1030] | 7.99 | 6.1
Cn1cc(-c2cc(F)c3oc4c(-c5ccc(N6CCOCC6)nc5)nc(=O)n(CCC5CCCO5)c4c3c2)cn1 (stereo not drawn) [Compound 1031] | 7.85 | 6.4
CNc1ccc(-c2nc(=O)n(CCC3CCCO3)c3c2oc2cc(F)c(-c4cnn(C)c4)cc23)cn1 (stereo not drawn) [Compound 1032] | 7.92 | 7.7
Cn1cc(-c2cc3c(cc2F)oc2c(-c4ccc(N5CCC5)nc4)nc(=O)n(CCC4CCCO4)c23)cn1 (stereo not drawn) [Compound 1033] | 8.12 | 6.9
CN(C)c1ccc(-c2nc(=O)n(CCC3CCCO3)c3c2oc2cc(F)c(-c4cnn(C)c4)cc23)cn1 (stereo not drawn) [Compound 1034] | 7.64 | 6.8
CN(C)c1ccc(-c2nc(=O)n(CCC3CCCO3)c3c2oc2ccc(-c4cncs4)cc23)cn1 (stereo not drawn) [Compound 1035] | 8.03 | 11.5
CNc1ccc(-c2nc(=O)n(CCC3CCCCO3)c3c2oc2ccc(-c4cnn(C)c4)cc23)cn1 (stereo not drawn) [Compound 1036] | 8.17 | 7.6
C[C@@H]1C[C@H](n2c(=O)nc(-c3cnn(C)c3)c3oc4ccc(-c5cnn(C)c5)cc4c32)C[C@H](C)O1 [Compound 1039] | 7.44 | 16.8
CC[C@H]1C[C@@H](n2c(=O)nc(-c3cnn(C)c3)c3oc4ccc(-c5cccnc5)cc4c32)CCO1 [Compound 1040] | 7.89 | 19.2
CC[C@H]1C[C@@H](n2c(=O)nc(-c3cnn(C)c3)c3oc4ccc(-c5cnn(CC)c5)cc4c32)CCO1 [Compound 1041] | 8.18 | 26.9
CC[C@H]1C[C@@H](n2c(=O)nc(-c3cnn(C)c3)c3oc4cc(C#N)c(-c5cnn(C)c5)cc4c32)CCO1 [Compound 1049] | 7.82 | –
CC[C@H]1C[C@@H](n2c(=O)nc(-c3ccc(NC)nc3)c3oc4ncc(-c5cnn(C)c5)cc4c32)CCO1 [Compound 1069] | 8.11 | –
